# Patent publication US8450053B2, “ZAP-70 as predictor and modulator of effector function of T cells” (University of Maryland, Baltimore, priority 2007, dated 2013)
# Entries after “also recorded” stand apart in the source; their conditions may differ.
# Columns and labels:
# Type in all cases: cell-based, mouse
# memory CD4 T cells = experiment: Inhibitor assay: OVA-specific memory CD4 T cells stimulated with OVA/APC, flow cytometry and intracellular cytokine staining
# Description: (§1) Intracellular cytokine staining (ICS) analysis of signaling intermediates and cytokines was performed as previously described (Bingaman et al., 2005, supra; Ahmadzadeh and Farber, 2002, supra). Briefly, naive or memory CD4 T cells were cultured with APC and 800 ng/ml OVA peptide for time points of 0-48 hrs, and monensin (Golgistop™, BD Pharmingen) was added 6 hrs prior to harvesting. Cells were stained with antibodies for surface markers CD4, CD25, CD44, KJ1-26, fixed (Cytofix™ buffer, BD Pharmingen), permeabilized, and stained intracellularly with fluorochrome-conjugated antibodies to cytokines, signaling intermediates, and analyzed by flow cytometry.
# (§2) Six-color flow cytometry was performed on BD LSR II flow cytometer (BD Biosciences) using FITC, PE, PERCP and PE-Cy7, allophycocyanin-Cy7, and allophycocyanin as fluorochromes (BD Biosciences, e-biosciences, Invitrogen/caltag). CD4 T cells stained with single color fluorochromes were used for compensation, background values were established with isotype controls, and data were analyzed using BD FACSDiva™ software (BD Biosciences). Fluorochrome-conjugated antibodies directed against CD4 (clone GK1.5), CD25 (PC61), CD69 (H1.2F3), CD62L (MEL-14), CD44 (IM7), CD3ε (145-2C11), IFN-γ (XMG1.2), phospho-ZAP-70 (17-P), phospho-PLC-γ (27/PLC), and phospho-Stat1 (clone 4a) were all purchased from BD-Pharmingen (San Diego, Calif.). PE- and APC-conjugated KJ1-26 specific for the DO11.10 TCR clonotype were purchased from CALTAG Laboratories (Burlingame, Calif.). PE- and FITC-conjugated ZAP-70 (1E7.2) was obtained from Invitrogen (Carlsbad, Calif.), and FITC-conjugated phospho-tyrosine (PT-66) from Sigma (St. Louis, Mo.), and phospho-p38 (28B10) and phospho-erk1/2 (E10) were purchased from Cell signaling technology, Inc. (Danvers, Mass.). For most analyses, a given marker was analyzed using several different fluorochromes to eliminate errors based on compensation.
# (§3) Naive or memory CD4 T cells (1×10^6) were cultured with APC (3×10^6) in total volume of 1 ml of Clicks medium containing 800 ng/ml OVA peptide for time points of 0-24 hrs along with inhibitors cycloheximide (Sigma, 50 μg/ml) or piceatannol (Calbiochem, 12 μM of 3,4,3′,5′-tetrahydroxy-trans-stilbene). Solvent alone served as a vehicle control.
# [1] = system: naive and memory CD4 T cells; experiment: Viability of naive and memory CD4 T cells cultured with cycloheximide; settings: after 24 hrs in cycloheximide, average
# Description: as §3
# naive CD4 T cells = experiment: Inhibitor assay: OVA-specific naive CD4 T cells stimulated with OVA/APC, flow cytometry; settings: cycloheximide 50 μg/ml
# Description: as §1, §2, §3
# ZAP-70 = experiment: siRNA-mediated knockdown of ZAP-70 in OVA-specific memory CD4 T cells
# Description: Cy3-labeled ZAP-70 specific siRNA Sense (5′→3′)/Cy3/GGCGGAUGGACUAAUUUACtt (SEQ ID NO: 10); Antisense (5′→3′) GUAAAUUAGUCCAUCCGCCtt (SEQ ID NO:11) or control GAPDH siRNA obtained from Ambion (Austin, Tex.) was delivered at a final concentration of 5 μM into 1.0×10^6 purified resting memory OVA-specific CD4 T cells using the mouse T cell nucleofector kit (Amaxa Inc., Gaithersburg, Md.) according to the manufacturers instructions and similar to the approach previously employed for siRNA transfections in mouse T cells (Sabbagh et al., 2006, Proc. Natl. Acad. Sci. USA 103:18703-18708). Following nucleofection, cell suspensions were cultured in media in 24 well plates with APC (2×10^6/well) and OVA-peptide (800 ng/ml), followed by incubation at 37° C. for 18 hrs. After 18 hrs, Golgistop (BD Pharmingen, USA) (0.66 μl/ml of culture) was added, cells were incubated for an additional 6 hrs, and subsequently staining for surface expression of CD4, KJ1-26 and CD25, and intracellular expression of ZAP-70 and IFN-γ as above.
# [2] = memory CD4 T cells, OVA/APC 6 hrs, piceatannol 12 μM
# [3] = antigen-stimulated memory CD4 T cells, 24 hrs, cycloheximide 50 μg/ml
# [4] = memory CD4 T cells, +/-antigen, 6 hrs, cycloheximide 50 μg/ml
# [5] = naive CD4 T cells, +/-antigen, 6 hrs
# [6] = naive T cells, antigenic stimulation 24 hrs
compound,measurement,setting,value
"Oc1cc(O)cc(/C=C/c2ccc(O)c(O)c2)c1 [piceatannol, 3,4,3′,5′-tetrahydroxy-trans-stilbene]","ZAP-70 expression, dose response","memory CD4 T cells; antigen-stimulated memory CD4 T cells, +/-OVA/APC, six hrs",reduced ZAP-70 expression in a dose-dependent fashion
same,ZAP-70 expression,memory CD4 T cells; [2],specifically reduced
same,basal level of CD25,memory CD4 T cells; [2],without affecting
same,rapid IFN-γ production,memory CD4 T cells; [2],striking inhibition; also recorded: completely blocked
same,total p-Tyr content,memory CD4 T cells; [2],without affecting
C[C@@H]1C[C@@H]([C@H](O)CC2CC(=O)NC(=O)C2)C(=O)[C@@H](C)C1 [cycloheximide],Viability,[1],70%
same,CD25 up-regulation,memory CD4 T cells; [3],inhibited
same,memory CD4 T cells maintaining high level of ZAP-70 expression,memory CD4 T cells; [3],> 50%
same,intracellular tyrosine phosphorylation,memory CD4 T cells; [4],did not affect
same,resting state level of ZAP-70,memory CD4 T cells; [4],did not affect
same,p-Tyr levels,"memory CD4 T cells; memory T cells, 24 hrs, cycloheximide 50 μg/ml",did not affect
same,increases in total intracellular p-Tyr levels,"naive CD4 T cells; activated naive CD4 T cells, 24 hrs",significantly inhibited
same,intracellular tyrosine phosphorylation,naive CD4 T cells; [5],did not affect
same,resting state level of ZAP-70,naive CD4 T cells; [5],did not affect
same,up-regulation of CD25 expression,naive CD4 T cells; [6],completely inhibited
same,up-regulation of ZAP-70 expression,naive CD4 T cells; [6],completely inhibited
"ZAP-70 specific siRNA: Cy3-labeled ZAP-70 specific siRNA, sense GGCGGAUGGACUAAUUUACtt (SEQ ID NO: 10), antisense GUAAAUUAGUCCAUCCGCCtt (SEQ ID NO:11) (sense GGCGGAUGGACUAAUUUACTT; antisense GUAAAUUAGUCCAUCCGCCTT; Cy3 label, further chemistry not given here)",early IFN-γ production,"ZAP-70; memory CD4 T cells, ZAP-70 downmodulated using siRNA",inhibited
same,reduction in the proportion of memory T cells producing IFN-γ,"ZAP-70; siRNA 5 μM, OVA/APC 24 hrs, vs siRNA- and GAPDH siRNA transfectants",50%
same,ZAP-70 expression (MFI),"ZAP-70; silenced (siRNA+) vs unsilenced (siRNA-) memory CD4 T cells, siRNA 5 μM, OVA/APC 24 hrs",reduction in ZAP-70 expression
